Earlier results as cited in PMC12737490, “Beta Toxins Isolated from the Scorpion Centruroides hirsutipalpus (Scorpiones; Buthidae) Affect the Function of Sodium Channels of Mammals” (Toxins, 2025).

Tests used:
hNav1.6 channel = details: ref [13]; cited from earlier work
From the text: When comparing the sequence of the new toxins β-NaScTxs from C. hirsutipalpus with sequences from different scorpions (Figure 3A) using BLASTp version 2.11.0, it is shown that the sequence of the toxin Chirp7 is 100% identical to the sodium toxin Ct1a (UniProt accession P18926) from the C. tecomanus scorpion.

sodium channel = details: stated as reported earlier; no reference in the sentence; cited from earlier work
Nav1.6 = details: ref [34]; cited from earlier work
From the text: (§1) The Chirp9 peptide in the venom of C. hirsutipalpus has an abundance of 2.8%. It has an experimental mass of 7790.1 Da and a theoretical mass of 7790.9 Da. The sequence of Chirp9 (Figure 3B) shares 97% identity with the Cl13 toxin from the C. limpidus scorpion (UniProt C0HK69) and differs by only two amino acid substitutions: L5I and Q54A. These substitutions could modulate the toxic properties of the venom through structural alterations in the peptide that influence its interaction with target sites, possibly leading to increased potency or stability. The Cl13 toxin is found in C. limpidus ve ...

Nav1.4 = details: ref [34]; cited from earlier work
From the text: as §1

Nav1.2 = details: ref [34]; cited from earlier work
From the text: as §1

Nav1.5 = details: ref [34]; cited from earlier work
From the text: as §1

Substance	effect on hNav1.6 channel (hNav1.6 channel)	effect on sodium channel inactivation kinetics (sodium channel)	effect on sodium currents (Nav1.6)	effect on sodium currents (Nav1.4)	effect on sodium currents (Nav1.2)	effect on sodium currents (Nav1.5)
Ct1a: sodium toxin Ct1a from the C. tecomanus scorpion, sequence 100% identical to Chirp7	altering channel activation by lowering the action potential and decreasing the current amplitude	–	–	–	–	–
Cl13: beta toxin from the C. limpidus scorpion, 97% identity with Chirp9	–	slow down the kinetics of sodium channel inactivation	modifies sodium currents	modifies sodium currents	modifies sodium currents	modifies sodium currents
